# Activity calls are given as the source filed them.
# Legend:
# H9c2 = test: cells; format: functional, cell-based; conditions: Rattus norvegicus, H9c2, Myocardium;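 note: confirmatory concentration-response retest of ultra-high-throughput screening hits for modulation of myocardial damage; cell death induced by hydrogen peroxide oxidative stress; compound pretreatment for 60 min then peroxide exposure for 2 h; potency is for protecting the cells against peroxide damage rather than for killing them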
# [1] = target: T1, Short transient receptor potential channel 4 (Mus musculus, UniProt Q9QUQ5); test: mouse TRPC4 channel inhibitors, dose response, cell-based, HEK293 TRPC4/mu-opioid, Fluo-4 calcium (AID 434942); format: functional;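 note: potency of inhibitors blocking the TRPC4 calcium response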
# T1 sequence (Q9QUQ5 whole entry): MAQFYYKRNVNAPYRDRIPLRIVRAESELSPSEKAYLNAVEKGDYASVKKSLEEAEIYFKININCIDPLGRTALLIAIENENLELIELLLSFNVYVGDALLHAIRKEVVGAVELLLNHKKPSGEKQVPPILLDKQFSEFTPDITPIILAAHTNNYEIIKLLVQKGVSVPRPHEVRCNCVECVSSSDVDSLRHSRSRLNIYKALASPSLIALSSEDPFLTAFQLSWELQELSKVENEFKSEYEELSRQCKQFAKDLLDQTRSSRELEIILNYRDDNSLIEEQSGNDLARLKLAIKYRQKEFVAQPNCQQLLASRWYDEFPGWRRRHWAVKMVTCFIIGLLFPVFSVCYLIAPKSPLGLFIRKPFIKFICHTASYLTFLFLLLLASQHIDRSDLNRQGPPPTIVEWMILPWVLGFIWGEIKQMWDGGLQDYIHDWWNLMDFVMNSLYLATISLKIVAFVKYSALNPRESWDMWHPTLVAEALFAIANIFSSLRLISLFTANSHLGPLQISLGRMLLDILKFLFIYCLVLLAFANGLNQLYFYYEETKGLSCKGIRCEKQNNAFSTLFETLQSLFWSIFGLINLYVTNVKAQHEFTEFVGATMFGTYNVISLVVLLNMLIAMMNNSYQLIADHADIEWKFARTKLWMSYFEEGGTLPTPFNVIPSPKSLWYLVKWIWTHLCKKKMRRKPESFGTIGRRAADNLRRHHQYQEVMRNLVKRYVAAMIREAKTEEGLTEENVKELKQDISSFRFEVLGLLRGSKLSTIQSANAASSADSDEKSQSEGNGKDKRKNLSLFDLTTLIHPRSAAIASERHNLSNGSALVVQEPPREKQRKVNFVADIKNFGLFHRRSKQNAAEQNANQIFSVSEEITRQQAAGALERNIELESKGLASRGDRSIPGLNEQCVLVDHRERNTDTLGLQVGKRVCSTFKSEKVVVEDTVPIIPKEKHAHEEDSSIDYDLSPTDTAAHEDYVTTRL
# [2] = microbe, parasite or virus in culture; format: functional; conditions: Mycobacterium tuberculosis
# Paired box protein Pax-8 = Paired box protein Pax-8 (Homo sapiens, UniProt Q06710); test: inhibitors of PAX8-driven TPO luciferase reporter, dose response, RMG-I cells, cherry-pick (AID 687027); format: functional, cell-based;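 note: luciferase reporter driven by Pax8 target thyroperoxidase promoter measured by SteadyGlo luminescence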
# Large T antigen = Large T antigen (Simian virus 40, UniProt P03070); format: functional, Betapolyomavirus macacae;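 note: Confirmatory-stage PubChem screen for compounds that inhibit SV40 T antigen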
# [3] = target: T2, Corticotropin-releasing factor receptor 2/Corticotropin-releasing factor-binding protein (Homo sapiens, UniProt P24387+Q13324); test: Dose Response confirmation of uHTS hits for small molecule antagonists of the CRF-binding protein and CRF-R2 receptor complex.; format: functional; conditions: read-out: IC50_Mean
# T2 sequence (Q13324 whole entry): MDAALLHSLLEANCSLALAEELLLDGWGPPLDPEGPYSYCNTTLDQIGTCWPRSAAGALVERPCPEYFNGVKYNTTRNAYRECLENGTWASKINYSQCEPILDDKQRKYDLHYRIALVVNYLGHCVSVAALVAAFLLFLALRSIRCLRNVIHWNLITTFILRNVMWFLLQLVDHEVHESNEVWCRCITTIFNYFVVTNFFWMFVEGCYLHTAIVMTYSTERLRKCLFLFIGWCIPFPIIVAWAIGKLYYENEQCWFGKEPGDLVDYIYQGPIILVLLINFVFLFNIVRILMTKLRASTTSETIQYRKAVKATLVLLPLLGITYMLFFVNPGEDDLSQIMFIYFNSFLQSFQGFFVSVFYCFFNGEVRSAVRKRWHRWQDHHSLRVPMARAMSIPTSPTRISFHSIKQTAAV
# T2 sequence (P24387 whole entry): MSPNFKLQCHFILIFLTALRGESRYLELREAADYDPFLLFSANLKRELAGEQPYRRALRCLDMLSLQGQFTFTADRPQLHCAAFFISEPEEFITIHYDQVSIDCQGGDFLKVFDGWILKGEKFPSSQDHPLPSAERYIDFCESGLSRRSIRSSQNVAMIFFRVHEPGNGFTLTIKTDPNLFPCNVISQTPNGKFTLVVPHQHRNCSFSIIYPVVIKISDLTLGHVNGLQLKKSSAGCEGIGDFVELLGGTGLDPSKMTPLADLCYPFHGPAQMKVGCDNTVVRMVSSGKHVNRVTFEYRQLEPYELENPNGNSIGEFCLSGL
# [4] = target: T2, Corticotropin-releasing factor receptor 2/Corticotropin-releasing factor-binding protein; test: activators of CRF receptor 2 with binding protein – uHTS hits, confirmation (AID 602473); format: functional; conditions: read-out: EC50_Mean
# [5] = target: Luciferin 4-monooxygenase (Photinus pyralis, UniProt P08659); test: firefly luciferase enzyme inhibitors, dose response, biochemical, luminescence (AID 1891)
# [6] = Luminescence Cell-Based Dose Confirmation HTS to Identify Inhibitors of Platelet Dense Granule Release. [Related pubchem assays: 1663 (Primary HTS), 1678 (Summary of Project)]; format: functional
# [7] = target: T3, Zinc finger protein mex-5 (Caenorhabditis elegans, UniProt Q9XUB2); test: MEX-5/TCR-2 RNA interaction inhibitors, dose response, biochemical, C. elegans, fluorescence polarization (AID 1960)
# T3 sequence (Q9XUB2 whole entry): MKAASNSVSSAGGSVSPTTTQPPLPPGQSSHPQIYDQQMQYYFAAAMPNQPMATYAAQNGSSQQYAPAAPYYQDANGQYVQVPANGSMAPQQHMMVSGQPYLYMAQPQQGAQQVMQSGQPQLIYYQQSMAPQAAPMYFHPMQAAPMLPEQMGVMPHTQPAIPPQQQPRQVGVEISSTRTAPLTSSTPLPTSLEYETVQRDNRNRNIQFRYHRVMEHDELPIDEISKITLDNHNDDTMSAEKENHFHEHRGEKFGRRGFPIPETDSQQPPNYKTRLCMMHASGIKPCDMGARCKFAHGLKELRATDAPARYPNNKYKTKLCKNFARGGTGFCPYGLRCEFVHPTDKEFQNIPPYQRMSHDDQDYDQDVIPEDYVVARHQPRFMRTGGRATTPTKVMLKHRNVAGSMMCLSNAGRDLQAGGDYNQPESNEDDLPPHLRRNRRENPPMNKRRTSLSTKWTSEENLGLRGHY
# [8] = target: T4, RNA-binding protein pos-1 (Caenorhabditis elegans, UniProt G5EF15); test: inhibitors of POS-1/mex-3 RNA binding, dose response, biochemical, fluorescence polarization (AID 1964);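 note: purified POS-1 fused to maltose binding protein made in E. coli; potency of compounds blocking POS-1 binding to fluorescent RNA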
# T4 sequence (G5EF15 whole entry): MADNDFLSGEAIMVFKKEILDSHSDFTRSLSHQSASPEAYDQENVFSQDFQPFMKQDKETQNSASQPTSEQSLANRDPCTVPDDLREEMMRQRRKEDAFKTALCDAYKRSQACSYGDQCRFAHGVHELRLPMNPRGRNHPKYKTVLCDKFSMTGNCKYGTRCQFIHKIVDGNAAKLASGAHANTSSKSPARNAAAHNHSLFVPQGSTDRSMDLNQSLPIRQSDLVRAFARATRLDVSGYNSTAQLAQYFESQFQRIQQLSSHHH
# [9] = inhibitors of HIV Env-driven cell fusion, dose response, cherry-pick (AID 652057); format: functional, cell-based
# [10] = HepG2 cell cytotoxicity, dose response, cytotoxicity control for Shn3 inhibitor project, CellTiter-Glo, cherry-picked (AID 624134); format: functional, cell-based
# [11] = Shn3 3'UTR reporter inhibitors, dose response, cell-based, Clone20 osteoblasts, firefly luciferase, cherry-picked (AID 624132); format: functional;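 note: firefly luciferase luminescence from reporter carrying the Shn3 3'UTR in osteoblasts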
# [12] = control 3'UTR Renilla luciferase suppression, dose response, counter-screen for Shn3 inhibitor project, cell-based, Clone20-Shn3RL, cherry-picked (AID 624133); format: functional
# Chain of Luciferin 4-monooxygenase (P08659 whole entry): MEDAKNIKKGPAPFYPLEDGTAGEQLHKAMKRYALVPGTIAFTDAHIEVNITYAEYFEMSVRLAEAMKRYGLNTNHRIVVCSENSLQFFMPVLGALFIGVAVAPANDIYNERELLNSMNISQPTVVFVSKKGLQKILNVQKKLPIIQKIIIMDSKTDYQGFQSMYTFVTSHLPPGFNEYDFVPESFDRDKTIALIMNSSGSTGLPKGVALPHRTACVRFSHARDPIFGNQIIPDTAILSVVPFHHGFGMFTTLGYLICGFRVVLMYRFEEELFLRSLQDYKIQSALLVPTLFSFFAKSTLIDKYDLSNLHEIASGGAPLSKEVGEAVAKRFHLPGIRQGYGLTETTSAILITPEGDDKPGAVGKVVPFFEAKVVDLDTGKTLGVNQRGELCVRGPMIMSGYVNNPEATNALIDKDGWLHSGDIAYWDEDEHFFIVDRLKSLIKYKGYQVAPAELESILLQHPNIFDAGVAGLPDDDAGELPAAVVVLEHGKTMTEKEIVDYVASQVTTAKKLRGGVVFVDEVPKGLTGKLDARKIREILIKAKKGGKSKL
# Chain of Paired box protein Pax-8 (Q06710 whole entry): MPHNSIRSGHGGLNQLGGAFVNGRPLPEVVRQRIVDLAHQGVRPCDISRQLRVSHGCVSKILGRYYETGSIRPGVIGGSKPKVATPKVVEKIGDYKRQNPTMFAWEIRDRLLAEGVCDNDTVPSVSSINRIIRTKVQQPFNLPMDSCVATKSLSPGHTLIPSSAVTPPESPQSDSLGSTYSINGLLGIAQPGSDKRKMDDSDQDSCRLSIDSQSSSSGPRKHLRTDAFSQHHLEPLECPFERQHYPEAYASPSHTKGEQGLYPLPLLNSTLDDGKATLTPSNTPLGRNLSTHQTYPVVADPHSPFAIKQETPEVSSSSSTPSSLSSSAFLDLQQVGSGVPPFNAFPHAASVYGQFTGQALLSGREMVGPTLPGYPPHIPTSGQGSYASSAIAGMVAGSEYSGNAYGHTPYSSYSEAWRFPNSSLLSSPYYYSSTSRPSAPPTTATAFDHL
# Chain of Large T antigen (P03070 whole entry): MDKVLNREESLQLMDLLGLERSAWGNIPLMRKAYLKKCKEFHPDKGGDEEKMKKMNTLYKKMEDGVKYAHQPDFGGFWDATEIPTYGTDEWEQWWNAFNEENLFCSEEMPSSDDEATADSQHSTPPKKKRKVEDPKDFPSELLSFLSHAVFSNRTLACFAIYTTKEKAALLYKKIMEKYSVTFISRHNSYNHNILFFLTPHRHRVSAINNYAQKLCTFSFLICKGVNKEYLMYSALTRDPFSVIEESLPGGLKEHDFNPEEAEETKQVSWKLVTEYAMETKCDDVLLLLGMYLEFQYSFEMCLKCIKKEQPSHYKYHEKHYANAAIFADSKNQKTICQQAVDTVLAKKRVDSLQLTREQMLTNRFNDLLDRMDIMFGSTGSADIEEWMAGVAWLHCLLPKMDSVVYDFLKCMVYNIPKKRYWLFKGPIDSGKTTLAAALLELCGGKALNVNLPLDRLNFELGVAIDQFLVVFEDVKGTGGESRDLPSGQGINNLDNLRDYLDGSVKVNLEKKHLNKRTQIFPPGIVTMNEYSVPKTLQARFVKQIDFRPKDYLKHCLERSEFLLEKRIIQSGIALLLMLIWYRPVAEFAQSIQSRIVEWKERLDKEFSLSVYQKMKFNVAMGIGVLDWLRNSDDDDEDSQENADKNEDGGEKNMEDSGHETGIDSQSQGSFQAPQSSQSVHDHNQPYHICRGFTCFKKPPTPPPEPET
smiles,measurement,setting,value
Cc1cnc(C=O)c2cccc([N+](=O)[O-])c12,IC50,H9c2,> 79 µM (inactive)
O=C(Nc1ccc(F)cc1)N1CCN2C(=O)c3ccccc3C12c1ccccc1 (stereo not drawn),EC50,[1],1.68 µM (active)
COc1ccc(-c2nc(NC(=O)Cn3ccc(C(F)(F)F)n3)sc2C)cc1,CC50,[2],> 40 µM (active)
CCCN1CN(Cc2ccco2)c2nc3ccccc3n2C1,EC50,[1],1.88 µM (active)
Cc1ccc(Cn2c(CCNc3nc(-c4ccc(Cl)c([N+](=O)[O-])c4)cs3)nc3cc(C(=O)NCCCO)ccc32)cc1,IC50,H9c2,47.7 µM (inactive)
Cn1c2ccccc2c(=O)c2ccc(NCc3ccc4c(c3)OCO4)cc21,IC50,H9c2,15.2 µM (active)
CCN(Cc1ccccc1)C(=O)c1cc2c(=O)oc3ccc(C)cc3c2s1,IC50,H9c2,> 79 µM (inactive)
O=C(C1CCC1)N1CCCCN2[C@H](CO)[C@H](c3ccc(-c4cccc(F)c4)cc3)[C@H]2C1,AC50,Paired box protein Pax-8,19.1 µM (active)
CN(C)c1ccc(NC(=O)CN2C3CCCC2CC(NC(=O)c2ccccc2)C3)cc1 (stereo not drawn),EC50,[1],3.35 µM (active)
same,IC50,Large T antigen,7.46 µM (active)
Cc1ccc(-c2nnc(SCC(=O)N3CCN(c4ccccc4)CC3)o2)cc1,IC50,[3],> 47.1 µM (inactive)
same,EC50,[4],> 53 µM (inactive)
CC(C)=CCN1CCN(Cc2cccc3nonc23)CC1CCO (stereo not drawn),EC50,[1],2.99 µM (active)
Cc1ccc(N(CCC#N)C(=O)CSc2nc(O)c3ccccc3n2)cc1,IC50,H9c2,35.4 µM (inactive)
Cc1cccc(OCC(=O)N2CCN(C(=O)c3cccs3)CC2)c1,EC50,[5],> 112 µM (not active)
same,EC50,[6],> 112 µM (not active)
CCN1C(=O)C(=Cc2ccc(N3CCOCC3)o2)C(=O)N(CC)C1=S,EC50,[7],> 300 µM (inconclusive)
same,EC50,[8],> 300 µM (not active)
O=C1CCc2ccc(OCCCCN3CCN(c4cccc(Cl)c4Cl)CC3)cc2N1 [ARIPIPRAZOLE],CC50,[2],29.4 µM (active)
COCCn1c(SCc2cccc([N+](=O)[O-])c2)nc2ccccc2c1=O,EC50,[1],1.68 µM (active)
Cc1ccc(S(=O)(=O)N2[C@@H](c3ccc(Br)cc3)C(C(=O)O)=CC[C@H]2c2cccc(C)c2)cc1,IC50,[3],> 47.1 µM (inactive)
same,EC50,[4],> 53 µM (inactive)
O=C(NCCCN1CCOCC1)c1ccccc1,EC50,[5],> 112 µM (not active)
same,EC50,[6],> 112 µM (not active)
COc1ccc(S(=O)(=O)NNC(=O)C(=O)NNc2ccccn2)cc1,EC50,[8],> 300 µM (not active)
O=C(COc1ccccc1[N+](=O)[O-])Nc1ccc(N2CCN(C(=O)c3cccs3)CC2)cc1,IC50,H9c2,> 79 µM (inactive)
CC(=O)Nc1ccc(N2C(C(C)=O)=NN(c3ccc(Cl)cc3)C2c2sccc2C)cc1 (stereo not drawn),CC50,[2],> 40 µM (active)
C[C@@H]1CCCCO[C@@H](CN(C)CC2CC2)[C@@H](C)CN([C@H](C)CO)C(=O)c2cc(N(C)C)ccc2O1,IC50,[3],> 47.1 µM (inactive)
same,EC50,[4],> 53 µM (inactive)
CCCNC(=O)C[C@@H]1C[C@H]2c3cc(NC(=O)Cc4ccncc4)ccc3O[C@H]2[C@@H](CO)O1,AC50,[9],55.2 µM (active)
COc1ccccc1CN1CCCC(C(=O)N(C)Cc2ccccc2)C1 (stereo not drawn),IC50,[3],> 47.1 µM (inactive)
same,EC50,[4],> 53 µM (inactive)
COc1ccc(/C(O)=C/C=N/c2ccc([N+](=O)[O-])cc2C)c(OC)c1,EC50,[7],> 300 µM (not active)
same,EC50,[8],> 300 µM (not active)
O=C(CCN1CCc2ccccc2C(O)(c2ccccc2)C1)c1ccc2c(c1)OCCO2 (stereo not drawn),AC50,[10],63.3 µM (active)
same,EC50,[1],8.41 µM (active)
same,AC50,[11],23.1 µM (active)
same,AC50,[12],11.4 µM (active)
C[C@H]1CN([C@@H](C)CO)C(=O)c2ccccc2-c2ccccc2CO[C@H]1CN(C)S(=O)(=O)c1ccc(C(F)(F)F)cc1,AC50,Paired box protein Pax-8,9.62 µM (active)
N#CC(C#N)=Cc1ccc(N2CCOCC2)cc1,EC50,[7],> 300 µM (not active)
same,EC50,[8],> 300 µM (inconclusive)
COc1ccc(SCC(=O)Nc2ccccc2Cl)cc1,IC50,[3],> 47.1 µM (inactive)
same,EC50,[4],> 53 µM (inactive)
CC(C)(C)NC(=O)c1cccc(NC(=O)c2ccc(NC(=O)c3ccco3)cc2)c1,IC50,H9c2,> 79 µM (inactive)
O=C1N=C(N2CCOCC2)S/C1=C\c1ccc(-c2ccccc2Cl)o1,EC50,[7],> 300 µM (not active)
same,EC50,[8],> 300 µM (not active)
CC(=O)c1c(S)nc(-c2ccccc2)nc1N1CCN(C)CC1,EC50,[5],> 112 µM (not active)
same,EC50,[6],> 112 µM (not active)
COC(=O)c1cc(-n2cccc2)ccc1N1CCOCC1,EC50,[7],> 300 µM (not active)
same,EC50,[8],> 300 µM (not active)
COc1cc(OC)c(C2N(C)c3ccccc3N2C)cc1OC,EC50,[1],1.33 µM (active)
CC(C)CC(C(=O)Nn1cnnc1)N1C(=O)c2ccccc2C1=O (stereo not drawn),IC50,[3],> 47.1 µM (inactive)
same,EC50,[4],> 53 µM (inactive)
COc1cccc(C(=O)NCc2nnc(SCC(=O)Nc3nccs3)n2-c2ccccc2)c1,EC50,[5],> 112 µM (not active)
same,EC50,[6],> 112 µM (not active)
OC(C#Cc1ccccn1)c1cccs1 (stereo not drawn),EC50,[7],27.4 µM (inconclusive)
same,EC50,[8],33.4 µM (active)
CN(C(=S)NC(=O)c1ccc(Cl)cc1)C1CCCCC1,CC50,[2],> 40 µM (active)
